Data reported in patent US20240350454A1, “BACTERIAL EFFLUX PUMP INHIBITORS AND METHODS OF USE” (THE REGENTS OF THE UNIVERSITY OF COLORADO, priority 2021, published 2024).
Peptide text beside a SMILES is read from it. * marks the point of attachment. βNA = c1ccc2cc(N*)ccc2c1

Experiments:
Assay type in all cases: cell-based
[1] = test system: S. enterica serovar Typhimurium SL1344 sifB::gfp in RAW264.7 macrophages; assay: SAFIRE assay, intracellular bacterial load in macrophages; settings: Salmonella enterica
Description: The following experiments were performed using the SAFIRE assay described in U.S. Publication 2020/0022961, which is incorporated by reference in its entirety for all purposes. SAFIRE (Screen for Anti-infectives using Fluorescence microscopy of IntracellulaR Enterobacteriaceae) uses cell culture as a surrogate to identify compounds that prevent intracellular replication of a model Gram-negative bacterial human pathogen. The method identifies compounds that prevent bacterial growth in broth culture and compounds that decrease the load of Gram-negative bacteria inside of macrophages at concentrations≤10 μM but have no effect on bacterial growth in standard Mueller Hinton broth (MHB) at 100 μM. Thus, SAFIRE enables the discovery of compounds that are effective against Gram-negative bacteria in host cells and in whole animals, whether or not they are antibacterial in broth.
(§1) The wild-type S. enterica serovar Typhimurium strain, SL1344, was initially isolated from the blood of an infected calf. For screening and validation in macrophages, SL1344 sifB::gfp was grown in Luria-Bertani Broth (LB) with 30 μg/ml streptomycin and 30 μg/ml kanamycin to saturation overnight, diluted to an OD of 0.001 and frozen in 100 μL aliquots in 20% glycerol at −80° C. Prior to infection, aliquots were grown in 5 mL cultures of LB with 30 μg/ml streptomycin and 30 μg/ml kanamycin for 18 hours at 37° C. with aeration. Bacterial strains were routinely grown in LB with antibiotics: 30 μg/ml streptomycin, 30 μg/ml kanamycin, 50 μg/ml ampicillin, 10 μg/ml tetracycline, and/or 1.15 μg/ml meropenem. The acrAB::kan and macAB::kan strains were constructed according to known methods. S. enterica subsp. enterica, serovar Typhimurium strain S10801, NR-22067 is a multidrug resistant isolate from a calf with sepsis. This strain and others as indicated were obtained through BEI resources, NIAID, NIH.
(§2) Murine macrophage-like RAW 264.7 cells and HeLa human epithelial cells were obtained from the American Type Tissue Collection. BMDMs were isolated as previously described. Briefly, marrow was flushed from the femurs of 1- to 4-month-old 129SvEvTac mice (Taconic Laboratories) bred in-house. Mononuclear cells were separated using Histopaque-1083 (Sigma), washed, and directly seeded into assay plates at 1×10^5 cells/ml in complete medium supplemented with 35% conditioned media from 3T3 cells expressing MCSF. Media were refreshed three days later. After 1 week, media were replaced with 100 μL fresh media and cells were infected as described below. All three types of cells were grown in DMEM high glucose (Sigma) supplemented with 10% fetal bovine serum, 2 mM L-glutamine, 1 mM sodium pyruvate, 10 mM HEPES, and 50 μMβ-mercaptoethanol. Cells were maintained in a 5% CO2 humidified atmosphere at 37° C. For screening, frozen aliquots of RAW 264.7 were thawed and allowed to expand for three days prior to seeding; other experiments were performed with cultures between passages four and 20.
SAFIRE—RAW264.7 macrophages (7×103 in 40 μL or 5×104 in 100 μL) were seeded, respectively, in 384- or 96-well black-walled glass-bottomed plates (Brooks Automation). Twenty four hours post-seeding, bacteria in 20 or 50 μL PBS were added to a final concentration of 1×10^7 CFU/mL, conditions yielding infection of approximately 70% of macrophages at 18 hours post-infection with minimal macrophage toxicity. The sifB::gfp bacterial reporter strain was used to minimize green signal from extracellular bacteria. […] At two hours post-infection, 200 or 500 nL compound was added using a pin tool (CyBio) to yield a final concentration of 25 μM. Each assay plate included rifampicin and DMSO controls. In some experiments, media were removed and replaced with fresh media containing 40 μg/mL gentamicin and increasing concentrations of the compounds of the disclosure. […]

RAW264.7 macrophages = settings: mouse, 16 h
From the text: as §2
SAFIRE—RAW264.7 macrophages (7×103 in 40 μL or 5×104 in 100 μL) were seeded, respectively, in 384- or 96-well black-walled glass-bottomed plates (Brooks Automation). Twenty four hours post-seeding, bacteria in 20 or 50 μL PBS were added to a final concentration of 1×10^7 CFU/mL, conditions yielding infection of approximately 70% of macrophages at 18 hours post-infection with minimal macrophage toxicity. The sifB::gfp bacterial reporter strain was used to minimize green signal from extracellular bacteria. […] At two hours post-infection, 200 or 500 nL compound was added using a pin tool (CyBio) to yield a final concentration of 25 μM. Each assay plate included rifampicin and DMSO controls. In some experiments, media were removed and replaced with fresh media containing 40 μg/mL gentamicin and increasing concentrations of the compounds of the disclosure. At 17.5 hours post-infection, PBS containing MitoTracker Red CMXRos (Life Technologies) was added to a final concentration of 300 nM or 100 nM, for 384- or 96-well, respectively. Thirty minutes later, 16% paraformaldehyde was added to a final concentration of […] and incubated at room temperature for 15 minutes. Wells were washed twice with PBS and stained for 20 minutes with 1 μMDAPI; wells were washed twice and stored in 90% glycerol in PBS until imaging. The Z′-factor of the screening platform was 0.59 and 0.48 in 96-well and 384-well plates, respectively, within published ranges for complicated cell-based screens.
In addition, toxicity was measured according the following procedure: 1) analyzing macrophage cell morphology; and 2) using MATLAB to count cells (cells that lift up and float after treatment are not within the appropriate Z plane to be counted, and thus are considered dead). If 70% of the cells are adherent (as measured by comparing the number of cells before and after treatment), the compound is considered not toxic. Compounds that pass #1 and #2 above are considered to have a toxicity “>50 μM”. […]

E. Cloacae MB315 = assay: PMB MIC with selected compound in MHB; settings: for MIC: Enterobacter cloacae, selected compound 50 μg/mL in MHB
Description: (§3) MIC for the antibiotic alone (i.e., in the absence of the disclosed compounds) is provided in the first row labeled “None”. […] […] At this concentration (50 μg/mL), the compounds of the disclosure lacked intrinsic antibacterial activity but a significant improvement in efficacy was still observed. Thus, the compounds of the disclosure may be used to potentiate the activity of antibiotics that have lost their efficacy due to efflux.

[2] = test system: S. enterica sp. Enterica S10801; assay: Doxycycline MIC with selected compound in MHB; settings: comparator at 25 μg/mL in MHB
Description: as §1
MIC for the antibiotic alone (i.e., in the absence of the disclosed compounds) is provided in the first row labeled “None”. […] At this concentration (50 μg/mL), the compounds of the disclosure lacked intrinsic antibacterial activity but a significant improvement in efficacy was still observed. […]

E. coli BAA-2340 [3] = assay: Doxycycline MIC with selected compound in MHB; settings: comparator at 25 μg/mL in MHB
From the text: (§4) MIC for the antibiotic alone (i.e., in the absence of the disclosed compounds) is provided in the first row labeled “None”. […] […] […] Thus, the compounds of the disclosure may be used to potentiate the activity of antibiotics that have lost their efficacy due to efflux.

K. pneumoniae BAA-1705 [4] = assay: Doxycycline MIC with selected compound in MHB; settings: comparator at 25 μg/mL in MHB
From the text: as §4

K. pneumoniae BAA-2342 [5] = assay: Doxycycline MIC with selected compound in MHB; settings: comparator at 25 μg/mL in MHB
From the text: as §4

E. cloacae BAA-2341 [6] = assay: Doxycycline MIC with selected compound in MHB; settings: comparator at 25 μg/mL in MHB
Description: as §3

E. coli BAA-2340 [7] = assay: Ciprofloxacin MIC with selected compound in MHB; settings: comparator at 25 μg/mL in MHB
K. pneumoniae BAA-2342 [8] = assay: Ciprofloxacin MIC with selected compound in MHB; settings: comparator at 25 μg/mL in MHB
K. pneumoniae BAA-1705 [9] = assay: Ciprofloxacin MIC with selected compound in MHB; settings: comparator at 25 μg/mL in MHB
Description: as §3

E. cloacae BAA-2341 [10] = assay: Ciprofloxacin MIC with selected compound in MHB; settings: comparator at 25 μg/mL in MHB
E. coli BAA-2340 [11] = assay: Chloramphenicol MIC with selected compound in MHB; settings: comparator at 25 μg/mL in MHB
Description: as §3

[12] = test system: P. aeruginosa Focus MB0477; assay: Chloramphenicol MIC with selected compound in MHB; settings: comparator at 25 μg/mL in MHB
Description: as §3

A. baumannii MB306 = assay: Chloramphenicol MIC with selected compound in MHB; settings: comparator at 25 μg/mL in MHB
From the text: as §4

A. baumannii MB309 = assay: Chloramphenicol MIC with selected compound in MHB; settings: comparator at 25 μg/mL in MHB
From the text: as §4

E. cloacae BAA-2341 [13] = assay: Chloramphenicol MIC with selected compound in MHB; settings: comparator at 25 μg/mL in MHB
From the text: as §4

K. pneumoniae BAA-2342 [14] = assay: Chloramphenicol MIC with selected compound in MHB; settings: comparator at 25 μg/mL in MHB
From the text: as §4

N[C@@H]1CCN(C[C@@H](O)COc2ccc(Cl)c(Cl)c2)C1 [Compound 15]
IC50 [1]: < 1000 nM
Toxicity (RAW264.7 macrophages): >50 µM

NC1CCN(CC(O)COc2c(Cl)cccc2Cl)CC1 (centres unmarked) [Compound 8]
IC50 [1]: < 1000 nM
Toxicity (RAW264.7 macrophages): >50 µM

NC1CCN(CC(O)COc2ccc(Cl)c(Cl)c2)CC1 (centres unmarked) [Compound 4]
IC50 [1]: < 1000 nM
Toxicity (RAW264.7 macrophages): <25 µM
MIC (E. Cloacae MB315): 16 µg/mL

N[C@@H]1CCN(C[C@H](O)COc2ccc(Cl)c(Cl)c2)C1 [Compound 13]
IC50 [1]: < 1000 nM
Toxicity (RAW264.7 macrophages): >50 µM

NC1CCN(CC(O)COc2ccc(Cl)cc2Cl)CC1 (centres unmarked) [Compound 7]
IC50 [1]: < 1000 nM
Toxicity (RAW264.7 macrophages): <50 but >25 μM
MIC (E. Cloacae MB315): 32 µg/mL

N=C(N)NCCC[C@H](NC(=O)[C@@H](N)Cc1ccccc1)C(=O)Nc1ccc2ccccc2c1 [PAβN] (H-Phe-Arg-βNA)
Doxycycline MIC [2]: 8 µg/mL
Doxycycline MIC (E. coli BAA-2340 [3]): ≤1 µg/mL
Doxycycline MIC (K. pneumoniae BAA-1705 [4]): ≤1 µg/mL
Doxycycline MIC (K. pneumoniae BAA-2342 [5]): ≤1 µg/mL
Doxycycline MIC (E. cloacae BAA-2341 [6]): ≤1 µg/mL
PMB MIC (E. Cloacae MB315; comparator at 25 μg/mL in MHB): 32 µg/mL
Ciprofloxacin MIC (E. coli BAA-2340 [7]): 16 µg/mL
Ciprofloxacin MIC (K. pneumoniae BAA-2342 [8]): 16 µg/mL
Ciprofloxacin MIC (K. pneumoniae BAA-1705 [9]): 64 µg/mL
Ciprofloxacin MIC (E. cloacae BAA-2341 [10]): 16 µg/mL
Chloramphenicol MIC (E. coli BAA-2340 [11]): 8 µg/mL
Chloramphenicol MIC [12]: 1 µg/mL
Chloramphenicol MIC (A. baumannii MB306): 32 µg/mL
Chloramphenicol MIC (A. baumannii MB309): 64 µg/mL
Chloramphenicol MIC (E. cloacae BAA-2341 [13]): 2 µg/mL
Chloramphenicol MIC (K. pneumoniae BAA-2342 [14]): 8 µg/mL

NC1CCN(C[C@@H](O)COc2ccc(Cl)c(Cl)c2)C1 (some centres unmarked) [Compound 3]
IC50 [1]: < 1000 nM
Toxicity (RAW264.7 macrophages): >50 µM
MIC (E. Cloacae MB315): 32 µg/mL

OC(COc1ccc(Cl)c(Cl)c1)CN1CCC(n2ccnc2)CC1 (centres unmarked) [Compound 5]
IC50 [1]: < 1000 nM
Toxicity (RAW264.7 macrophages): >50 µM

OC(CN[C@H]1[C@@H]2CNC[C@@H]21)COc1cc(Cl)cc(Cl)c1 (some centres unmarked) [Compound 18]
IC50 [1]: < 1000 nM
Toxicity (RAW264.7 macrophages): >50 µM
MIC (E. Cloacae MB315): 1 µg/mL

NC1CCN(CC(O)COc2ccc(Cl)c(Cl)c2)C1 (centres unmarked) [Compound 1]
IC50 [1]: < 1000 nM
Toxicity (RAW264.7 macrophages): >50 µM
MIC (E. Cloacae MB315): 32 µg/mL

NC1CCN(C[C@H](O)COc2ccc(Cl)c(Cl)c2)C1 (some centres unmarked) [Compound 2]
IC50 [1]: < 1000 nM
Toxicity (RAW264.7 macrophages): >50 µM

NCC1CCN(CC(O)COc2cc(Cl)cc(Cl)c2)C1 (centres unmarked) [Compound 10]
IC50 [1]: < 1000 nM
Toxicity (RAW264.7 macrophages): <50 but >25 μM
MIC (E. Cloacae MB315): 32 µg/mL
